Experiments:
[1] = test system: CYP3A4; assay: Human CYP 3A4 induction assay (mRNA, cryopreserved human hepatocytes); type: in vitro ADME; details: 72 hours, percent of control (POC); for CYP3A4 mRNA Induct Hu 2 uM POC: 2 uM test compound; for CYP3A4 mRNA Induct Hu 10 uM POC: 10 uM test compound
Procedure: Human CYP 3A4 Induction Assay
Cryopreserved human hepatocytes were seeded in 96-well collagen coated plates at 70,000 cells per well in hepatocyte plating media (HPM, final concentrations: lx Dulbecco's Modified Eagle's Medium, 0.1 μM dexamethasone, 10% fetal bovine serum, lx ITS, 1×PSG) followed by incubation at 37° C. under 5% CO2 and 90% relative humidity for 2 days to allow hepatocytes to form a confluent layer. On Day 3, hepatocytes were treated with either test compound or rifampin (20 μM, positive control for CYP3A induction) prepared in hepatocyte incubation media ((HIM, final concentrations: 1× William's Medium E, 0.1 μM dexamethasone, 1×ITS, 1×PSG). Treatment was performed for 72 hours with either 2 concentrations (2 μM or 10 μM) or a range of concentrations (0.001 μM to 100 μM) of the test compound to obtain full dose-response curve. Fresh media containing the relevant concentrations of the test compound was replaced every day until the samples were processed. After 72 hours of incubation, samples were processed for mRNA analysis using bDNA technology using manufacturer's instructions (Affymetrix, Fremont, Calif.). Cell viability was tested at the end of the experiment using MTT assay kit (Roche Diagnostics, Basel, Switzerland). Data was analyzed and presented as percent of control (POC) and Emax and EC50 obtained when appropriate according to guidance from Center for Drug Evaluation and Research (CDER), 2006, Guidance for Industry, Drug Interaction Studies—Study Design, Data Analysis, and Implications for Dosing and Labeling.
Cryopreserved human hepatocytes were seeded in 96-well collagen coated plates at 70,000 cells per well in hepatocyte plating media (HPM, final concentrations: lx Dulbecco's Modified Eagle's Medium, 0.1 μM dexamethasone, 10% fetal bovine serum, lx ITS, 1×PSG) followed by incubation at 37° C. under 5% CO2 and 90% relative humidity for 2 days to allow hepatocytes to form a confluent layer. On Day 3, hepatocytes were treated with either test compound or rifampin (20 μM, positive control for CYP3A induction) prepared in hepatocyte incubation media ((HIM, final concentrations: 1× William's Medium E, 0.1 μM dexamethasone, 1×ITS, 1×PSG). Treatment was performed for 72 hours with either 2 concentrations (2 μM or 10 μM) or a range of concentrations (0.001 μM to 100 μM) of the test compound to obtain full dose-response curve. Fresh media containing the relevant concentrations of the test compound was replaced every day until the samples were processed. After 72 hours of incubation, samples were processed for mRNA analysis using bDNA technology using manufacturer's instructions (Affymetrix, Fremont, Calif.). Cell viability was tested at the end of the experiment using MTT assay kit (Roche Diagnostics, Basel, Switzerland). Data was analyzed and presented as percent of control (POC) and Emax and EC50 obtained when appropriate, as described in Halladay, J. et al, 2012, An “all-inclusive” 96-well cytochrome P450 induction method: Measuring enzyme activity, mRNA levels, protein levels, and cytotoxicity from one well using cryopreserved human hepatocytes, Pharmacological and Toxicological Methods, 66:270-275.

[2] = target: T1, Human Nav1.7 (Homo sapiens, UniProt Q15858); assay: Ionworks Barracuda (IWB) automated patch clamp assay; type: cell-based; details: population patch clamp, HEK cells, 4 min compound incubation at -20 mV; read-out: hNaV1.7 IWB-U IC50
T1 construct: expressed in transfected cells; host or cells: Spiking HEK cells (without Kir2.1 transfection)
T1 sequence (Q15858 whole entry): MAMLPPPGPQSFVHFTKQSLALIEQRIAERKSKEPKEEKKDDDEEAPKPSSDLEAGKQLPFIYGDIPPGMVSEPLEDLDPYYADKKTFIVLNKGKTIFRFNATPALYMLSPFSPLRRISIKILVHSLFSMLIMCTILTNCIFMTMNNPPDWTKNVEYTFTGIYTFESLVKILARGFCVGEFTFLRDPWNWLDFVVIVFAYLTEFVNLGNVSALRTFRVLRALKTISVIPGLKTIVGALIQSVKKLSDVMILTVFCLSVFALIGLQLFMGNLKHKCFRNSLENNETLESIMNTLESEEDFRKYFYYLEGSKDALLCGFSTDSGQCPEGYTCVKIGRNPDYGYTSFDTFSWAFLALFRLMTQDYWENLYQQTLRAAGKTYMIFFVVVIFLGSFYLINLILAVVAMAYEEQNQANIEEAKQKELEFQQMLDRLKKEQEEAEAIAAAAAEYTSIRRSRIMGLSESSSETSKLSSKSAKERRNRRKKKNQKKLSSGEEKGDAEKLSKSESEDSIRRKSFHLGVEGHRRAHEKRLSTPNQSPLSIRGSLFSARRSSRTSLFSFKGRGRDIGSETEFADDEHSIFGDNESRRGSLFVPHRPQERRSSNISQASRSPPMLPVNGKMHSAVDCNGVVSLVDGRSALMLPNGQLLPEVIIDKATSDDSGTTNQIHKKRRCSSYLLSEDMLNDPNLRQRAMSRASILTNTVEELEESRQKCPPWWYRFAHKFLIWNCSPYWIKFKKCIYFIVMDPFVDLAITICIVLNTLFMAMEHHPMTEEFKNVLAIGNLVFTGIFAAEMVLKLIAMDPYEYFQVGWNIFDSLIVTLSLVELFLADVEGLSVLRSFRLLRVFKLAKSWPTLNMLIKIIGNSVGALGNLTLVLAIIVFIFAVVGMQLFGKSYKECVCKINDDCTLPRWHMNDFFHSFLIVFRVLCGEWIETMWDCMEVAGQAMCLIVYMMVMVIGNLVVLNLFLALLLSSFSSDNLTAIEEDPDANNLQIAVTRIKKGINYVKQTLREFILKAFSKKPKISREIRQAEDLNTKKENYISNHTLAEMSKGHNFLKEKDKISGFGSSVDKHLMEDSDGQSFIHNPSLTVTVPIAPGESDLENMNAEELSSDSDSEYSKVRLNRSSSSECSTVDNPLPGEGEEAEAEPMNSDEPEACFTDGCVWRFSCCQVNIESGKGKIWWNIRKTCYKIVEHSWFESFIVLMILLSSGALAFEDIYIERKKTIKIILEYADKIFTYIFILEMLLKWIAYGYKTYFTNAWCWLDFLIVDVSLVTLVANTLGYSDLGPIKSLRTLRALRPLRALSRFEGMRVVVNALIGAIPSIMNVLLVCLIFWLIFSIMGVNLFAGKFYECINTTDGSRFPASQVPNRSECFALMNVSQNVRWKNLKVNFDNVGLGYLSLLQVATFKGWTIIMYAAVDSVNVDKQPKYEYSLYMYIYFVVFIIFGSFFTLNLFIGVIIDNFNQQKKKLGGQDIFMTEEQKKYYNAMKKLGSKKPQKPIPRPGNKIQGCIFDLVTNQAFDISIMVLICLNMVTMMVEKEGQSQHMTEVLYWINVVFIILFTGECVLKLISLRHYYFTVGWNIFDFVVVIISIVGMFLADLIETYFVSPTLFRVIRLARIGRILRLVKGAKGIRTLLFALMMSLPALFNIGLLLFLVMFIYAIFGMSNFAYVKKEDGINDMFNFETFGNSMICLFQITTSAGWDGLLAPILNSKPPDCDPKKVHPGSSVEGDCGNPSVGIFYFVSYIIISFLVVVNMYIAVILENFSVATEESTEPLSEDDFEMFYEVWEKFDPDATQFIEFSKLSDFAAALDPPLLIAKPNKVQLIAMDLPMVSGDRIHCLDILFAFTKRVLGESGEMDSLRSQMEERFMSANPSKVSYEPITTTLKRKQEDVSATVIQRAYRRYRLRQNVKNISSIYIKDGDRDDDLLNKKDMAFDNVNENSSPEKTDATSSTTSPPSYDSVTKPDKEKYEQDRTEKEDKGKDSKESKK
Procedure: Ionworks Barracuda Automated Patch Clamp Assay (Same Protocol for Both Human and Mouse)
Human Nav1.7 currents were recorded in population patch-clamp mode with the IWB automated electrophysiology system (Molecular Devices, LLC, Sunnyvale, Calif.). Spiking HEK cells (without Kir2.1 transfection) were cultured and prepared for recordings as previously described for IonWorks Quattro testing^1. The external solution consisted of the following (in mM): NaCl 140, KCl 5, CaCl2 2, MgCl2 1, HEPES 10, and glucose 11, pH 7.4, with N-methyl-D-glucamine at 320 mOsmol. The internal solution consisted of the following (in mM): KCl 70, KF 70, MgCl2 0.25, HEDTA 5, and HEPES 10, pH 7.25, with Nmethyl-D-glucamine, 300 mOsmol. From a holding potential of −110 mV, currents were elicited by a train of 26 depolarizations of 150 ms duration to −20 mV at a frequency of 5 Hz. Cells were then clamped to −20 mV for a period of 4 minutes in the presence of a single concentration of test compound. Following this compound incubation period, cells were clamped to −110 mV for three seconds to recover unbound channels and put through the same 26 pulse voltage protocol as above. Peak inward current during the 26th pulse to −20 mV in the presence of compound was divided by the peak inward current evoked by the 26th pulse to −20 mV in the absence of compound to determine percent inhibition. Concentration-response curves of percent inhibition as a function of concentration were generated to calculate IC50 values as described in Kornecook, T. J.; Yin, R.; Altmann, S.; et al. Pharmacologic Characterization of AMG8379, a Potent and Selective Small Molecule Sulfonamide Antagonist of the Voltage-Gated Sodium Channel NaV1. 7. J. Pharmacol. Exp. Ther. 2017, 362, 146-160.

Structure (SMILES)	CYP3A4 mRNA Induct Hu 2 uM POC [1]	CYP3A4 mRNA Induct Hu 10 uM POC [1]	IC50 [2]
COc1cc(SC(F)(F)F)ccc1-n1c(=O)ccc2cc(S(=O)(=O)Nc3ccon3)ccc21 (atropisomer, axis not shown; (P)) [Example 23]	7.4%	25.1%	39 nM
COc1cc(OCC(F)(F)F)c(F)cc1-n1c(=O)ccc2cc(S(=O)(=O)Nc3ccon3)c(F)cc21 [Example 14]	3.6%	21.4%	23 nM
COc1cc(O[C@@H](C)C(F)(F)F)c(F)cc1-n1c(=O)ccc2cc(S(=O)(=O)Nc3ccon3)ccc21 (atropisomer, axis not shown; (P)) [Example 18, (P)-(S)-1-(5-fluoro-2-methoxy-4-((1,1,1-trifluoropropan-2-yl)oxy)phenyl)-N-(isoxazol-3-yl)-2-oxo-1,2-dihydroquinoline-6-sulfonamide]	2.6%	9.5%	27 nM
COc1nc(SC(F)(F)F)c(F)cc1-n1c(=O)ccc2cc(S(=O)(=O)Nc3ccon3)ccc21 (atropisomer, axis not shown; (P)) [Example 26, (P)-1-(5-fluoro-2-methoxy-6-((trifluoromethyl)thio)pyridin-3-yl)-N-(isoxazol-3-yl)-2-oxo-1,2-dihydroquinoline-6-sulfonamide]	5.7%	25.6%	185 nM
COc1cc(SC(F)(F)F)c(Cl)cc1-n1c(=O)ccc2cc(S(=O)(=O)Nc3ccon3)ccc21 (atropisomer, axis not shown; (P)) [Example 2, (P)-1-(5-chloro-2-methoxy-4-((trifluoromethyl)thio)phenyl)-N-(isoxazol-3-yl)-2-oxo-1,2-dihydroquinoline-6-sulfonamide]	–	–	8 nM
COc1cc(O[C@@H](C)C(F)(F)F)c(F)cc1-n1c(=O)ccc2cc(S(=O)(=O)Nc3ncccn3)ccc21 (atropisomer, axis not shown; (P)) [Example 24, (P)-(S)-1-(5-fluoro-2-methoxy-4-((1,1,1-trifluoropropan-2-yl)oxy)phenyl)-2-oxo-N-(pyrimidin-2-yl)-1,2-dihydroquinoline-6-sulfonamide]	0.8%	1.2%	68 nM
COc1cc(SC(F)(F)F)c(C)cc1-n1c(=O)ccc2cc(S(=O)(=O)Nc3ccon3)ccc21 [Example 12, P-N-(isoxazol-3-yl)-1-(2-methoxy-5-methyl-4-((trifluoromethyl)thio)phenyl)-2-oxo-1,2-dihydroquinoline-6-sulfonamide]	20.2%	61.2%	14 nM
COc1cc(COC(F)(F)F)c(F)cc1-n1c(=O)ccc2cc(S(=O)(=O)Nc3ccon3)ccc21 (atropisomer, axis not shown; (P)) [Example 4, (P)-1-(5-fluoro-2-methoxy-4-((trifluoromethoxy)methyl)phenyl)-N-(isoxazol-3-yl)-2-oxo-1,2-dihydroquinoline-6-sulfonamide]	0.2%	0.2%	11 nM
COc1cc(O[C@H](C)C(F)(F)F)c(F)cc1-n1c(=O)ccc2cc(S(=O)(=O)Nc3ncccn3)ccc21 [Example 13, P-(R)-1-(5-fluoro-2-methoxy-4-((1,1,1-trifluoropropan-2-yl)oxy)phenyl)-2-oxo-N-(pyrimidin-2-yl)-1,2-dihydroquinoline-6-sulfonamide]	7.0%	35.3%	21 nM
COc1cc(OCCC(F)(F)F)c(F)cc1-n1c(=O)ccc2cc(S(=O)(=O)Nc3ccon3)ccc21 (atropisomer, axis not shown; (P)) [Example 20, (P)-1-(5-fluoro-2-methoxy-4-(3,3,3-trifluoropropoxy)phenyl)-N-(isoxazol-3-yl)-2-oxo-1,2-dihydroquinoline-6-sulfonamide]	10.8%	29.6%	30 nM
COc1cc(SC(F)(F)F)c(F)cc1-n1c(=O)ccc2cc(S(=O)(=O)Nc3ncccn3)c(F)cc21 (atropisomer, axis not shown; (P)) [Example 19, (P)-7-fluoro-1-(5-fluoro-2-methoxy-4-((trifluoromethyl)thio)phenyl)-2-oxo-N-(pyrimidin-2-yl)-1,2-dihydroquinoline-6-sulfonamide]	17.4%	49.2%	29 nM
COc1cc(CCC(F)(F)F)c(F)cc1-n1c(=O)ccc2cc(S(=O)(=O)Nc3ccon3)ccc21 (atropisomer, axis not shown; (P)) [Compound A, (P)-1-(5-fluoro-2-methoxy-4-(3,3,3-trifluoropropyl)phenyl)-N-(1,2-oxazol-3-yl)-2-oxo-1,2-dihydro-6-quinolinesulfonamide, reference compound]	41.9%	76.1%	14 nM
COc1cc(SCC(F)(F)F)c(F)cc1-n1c(=O)ccc2cc(S(=O)(=O)Nc3ccon3)ccc21 (atropisomer, axis not shown; (P)) [Example 5, (P)-1-(5-fluoro-2-methoxy-4-((2,2,2-trifluoroethyl)thio)phenyl)-N-(isoxazol-3-yl)-2-oxo-1,2-dihydroquinoline-6-sulfonamide]	3.4%	7.5%	11 nM
COc1cc(COC(F)(F)F)c(F)cc1-n1c(=O)ccc2cc(S(=O)(=O)Nc3ccon3)c(F)cc21 (atropisomer, axis not shown; (P)) [Example 6, (P)-7-fluoro-1-(5-fluoro-2-methoxy-4-((trifluoromethoxy)methyl)phenyl)-N-(isoxazol-3-yl)-2-oxo-1,2-dihydroquinoline-6-sulfonamide]	18.3%	30.1%	11 nM
